This assay deals with P388 leukemia ip, CD2F1 mice, survival T/C. The experiment in a line: NCI In Vivo Anticancer Drug Screen. Data for tumor model P388 Leukemia (intraperitoneal) in CD2F1 (CDF1) mice. To be noted: endpoint: median survival time, higher = longer survival. In short, it runs like this: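 Mice carrying the transplanted tumor received test compound or vehicle. Survival was recorded in each group, and the value is the treated-group measurement divided by that of the vehicle-treated control group.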

[1] abbreviates: dose: 50.0 mg/kg/injection, schedule: Q01DX005 (ip), vehicle: Klucel (hydroxypropylcellulose) (HPC).
The mark [2] stands for this setting: dose: 100.0 mg/kg/injection, schedule: Q01DX005 (ip), vehicle: Klucel (hydroxypropylcellulose) (HPC).
[3] abbreviates: dose: 200.0 mg/kg/injection, schedule: Q01DX005 (ip), vehicle: Klucel (hydroxypropylcellulose) (HPC).
[4] abbreviates: dose: 30.0 mg/kg/injection, schedule: Q01DX005 (ip), vehicle: saline with Tween-80.
The mark [5] stands for this setting: dose: 60.0 mg/kg/injection, schedule: Q01DX005 (ip), vehicle: saline with Tween-80.
Where [6] appears, read: dose: 240.0 mg/kg/injection, schedule: Q01DX005 (ip), vehicle: saline with Tween-80.
The mark [7] stands for this setting: dose: 120.0 mg/kg/injection, schedule: Q01DX005 (ip), vehicle: saline with Tween-80.
Setting [8] is: dose: 50.0 mg/kg/injection, schedule: Q01DX009 (ip), vehicle: Klucel (hydroxypropylcellulose) (HPC).
[9] abbreviates: dose: 100.0 mg/kg/injection, schedule: Q01DX009 (ip), vehicle: Klucel (hydroxypropylcellulose) (HPC).
The mark [10] stands for this setting: dose: 200.0 mg/kg/injection, schedule: Q01DX009 (ip), vehicle: Klucel (hydroxypropylcellulose) (HPC).
Setting [11] is: dose: 50.0 mg/kg/injection, schedule: Q01DX009 (ip), vehicle: saline.
[12] abbreviates: dose: 100.0 mg/kg/injection, schedule: Q01DX009 (ip), vehicle: saline.
[13] abbreviates: dose: 200.0 mg/kg/injection, schedule: Q01DX009 (ip), vehicle: saline.
The mark [14] stands for this setting: dose: 100.0 mg/kg/injection, schedule: Q04DX003 (ip), vehicle: saline with Tween-80.
[15] abbreviates: dose: 200.0 mg/kg/injection, schedule: Q04DX003 (ip), vehicle: saline with Tween-80.
Setting [16] is: dose: 25.0 mg/kg/injection, schedule: Q01DX009 (ip), vehicle: saline with Tween-80.
The mark [17] stands for this setting: dose: 50.0 mg/kg/injection, schedule: Q01DX009 (ip), vehicle: saline with Tween-80.
Where [18] appears, read: dose: 50.0 mg/kg/injection, schedule: Q01DX005 (ip), vehicle: saline with Tween-80.
[19] abbreviates: dose: 100.0 mg/kg/injection, schedule: Q01DX005 (ip), vehicle: saline with Tween-80.
Setting [20] is: dose: 200.0 mg/kg/injection, schedule: Q01DX005 (ip), vehicle: saline with Tween-80.

“And” between values parts separate entries of the source, which are not always exact repeats. Equal entries are not always repeated. Inconclusive results and toxic doses are left out.

Consider `O=C(O)c1ccc(Cn2ccc(=O)[nH]c2=O)cc1`, for which the T/C reads like this: (dose: 100.0 mg/kg/injection, schedule: Q01DX001 (ip), vehicle: saline with Tween-80) 100 % of control; (dose: 200.0 mg/kg/injection, schedule: Q01DX001 (ip), vehicle: saline with Tween-80) 100 % of control; (dose: 400.0 mg/kg/injection, schedule: Q01DX001 (ip), vehicle: saline with Tween-80) 100 % of control.
With `Brc1cc(-c2ccccc2)ccc1OCC1CO1` (stereo not given), the T/C is 101 % of control under setting [1], 108 % of control under setting [2] and 97 % of control under setting [3].
`CC(C)(C)c1ccc(C(=O)N2CCOC23CCCCC3)cc1`: the T/C runs as follows: under setting [1], 105 % of control; under setting [2], 96 % of control; under setting [3], 96 % of control.
On to `O=C(NC(Cc1ccc(Cl)cc1)C(=O)O)c1ccc(Br)cc1` (stereo not given), for which the T/C runs as follows: under setting [1], 100 % of control; under setting [2], 96 % of control; under setting [3], 99 % of control.
Regarding `Cc1ccc2cccc(OC(=O)Nc3cc(Cl)c(Cl)cc3Cl)c2n1`, the T/C (dose: 15.0 mg/kg/injection, schedule: Q01DX005 (ip), vehicle: saline with Tween-80) is 100 % of control; the T/C under setting [4] is 93 % of control; the T/C under setting [5] was 93 % of control; the T/C under setting [6] is 94 % of control.
For the compound `COc1cc(C)c(O)c(C/C=C(\C)CC2=C[C@@]3(C)CCC[C@@]3(C)[C@]3(C=CC(C)(C)O3)O2)c1`, the T/C (dose: 10.0 mg/kg/injection, schedule: Q01DX005 (ip), vehicle: saline with Tween-80) was 94 % of control; the T/C (dose: 20.0 mg/kg/injection, schedule: Q01DX005 (ip), vehicle: saline with Tween-80) is 99 % of control; the T/C (dose: 40.0 mg/kg/injection, schedule: Q01DX005 (ip), vehicle: saline with Tween-80) is 99 % of control.
Take `CC(O)/C(=N\Nc1ccccc1)c1nc2ccccc2[nH]c1=O` (stereo not given): the T/C under setting [4] is 92 % of control, the T/C under setting [5] is 89 % of control and the T/C under setting [7] was 88 % of control.
Consider `O=c1[nH]c2cc(Cl)ccc2c(=O)o1`, for which the T/C was 112 % of control under setting [8], 100 % of control under setting [9] and 103 % of control under setting [10].
On the same counts, the results for `COc1ccc(C(=O)Nc2cccnc2)cc1` are 98 % of control, 100 % of control and 98 % of control.
Consider `COC(=O)[C@H]1O[C@H]1c1cc[n+]([O-])cc1`, for which the T/C is, setting by setting: (dose: 25.0 mg/kg/injection, schedule: Q01DX005 (ip), vehicle: water) 101 % of control; (dose: 50.0 mg/kg/injection, schedule: Q01DX005 (ip), vehicle: water) 102 % of control; (dose: 100.0 mg/kg/injection, schedule: Q01DX005 (ip), vehicle: water) 105 % of control; (dose: 200.0 mg/kg/injection, schedule: Q01DX005 (ip), vehicle: water) 109 % of control.
Consider `C[CH2][Ge]([CH3])([CH2]C)[CH2]CCC[CH2][Sn]([CH3])([CH3])[CH3]`, for which the T/C reads like this: under setting [11], 98 % of control; under setting [12], 99 % of control; under setting [13], 97 % of control.
Take `CC1(C)CC(=O)C=C(NCCO)C1`: the T/C is, setting by setting: (dose: 50.0 mg/kg/injection, schedule: Q01DX005 (ip), vehicle: saline) 96 % of control; (dose: 100.0 mg/kg/injection, schedule: Q01DX005 (ip), vehicle: saline) 91 % of control; (dose: 200.0 mg/kg/injection, schedule: Q01DX005 (ip), vehicle: saline) 96 % of control.
Turning to `NC(=O)Nc1cc(NC(N)=O)cc(N(CCCl)CCCl)c1`, the T/C was 177 % of control (dose: 17.8 mg/kg/injection, schedule: Q04DX003 (ip), vehicle: water); 173 % of control (dose: 20.0 mg/kg/injection, schedule: Q04DX003 (ip), vehicle: water); 206 % of control (dose: 26.6 mg/kg/injection, schedule: Q04DX003 (ip), vehicle: water); 194 % of control and 215 % of control (dose: 40.0 mg/kg/injection, schedule: Q04DX003 (ip), vehicle: water).
For `CC(C)C(NC(=O)C(Cl)Cl)C(=O)O` (stereo not given), the T/C is 96 % of control under setting [1], 94 % of control under setting [2] and 96 % of control under setting [3].
For the compound `CC(C)c1ccc(C2OCC(C)(C)C(C(C)C)O2)cc1` (stereo not given), the T/C by setting is: under setting [14], 108 % of control; under setting [15], 105 % of control; (dose: 400.0 mg/kg/injection, schedule: Q04DX003 (ip), vehicle: saline with Tween-80) 109 % of control.
As for `CCOC(=O)c1cc2c(=O)oc3ccccc3c2oc1=O`, the T/C (dose: 12.5 mg/kg/injection, schedule: Q01DX009 (ip), vehicle: saline with Tween-80) was 105 % of control; the T/C under setting [16] is 98 % of control; the T/C under setting [17] is 100 % of control.
For the compound `O=c1c2cc(Cl)ccc2nc2n1OCC2`, the T/C reads like this: under setting [8], 94 % of control; under setting [9], 112 % of control; under setting [10], 104 % of control.
With `C=CCNc1ccc(OC)cc1`, the T/C (dose: 50.0 mg/kg/injection, schedule: Q04DX003 (ip), vehicle: saline with Tween-80) is 100 % of control; the T/C under setting [14] was 100 % of control; the T/C under setting [15] was 100 % of control.
As for `CC1(C)OC1CCl` (stereo not given), the T/C runs as follows: under setting [11], 107 % of control; under setting [12], 102 % of control; under setting [13], 101 % of control.
In the case of `COC(=O)CS(=O)(=O)CCS(=O)(=O)CC(=O)OC`, the T/C by setting is: (dose: 12.5 mg/kg/injection, schedule: Q01DX009 (ip), vehicle: saline) 99 % of control and 100 % of control; (dose: 25.0 mg/kg/injection, schedule: Q01DX009 (ip), vehicle: saline) 94 % of control and 98 % of control; under setting [11], 99 % of control and 124 % of control and 98 % of control; under setting [12], 103 % of control and 104 % of control and 113 % of control; under setting [13], 114 % of control.
On to `c1ccc(-c2cnc3nc4[nH]c5ccccc5c4nn23)cc1`, for which the T/C under setting [18] is 98 % of control, the T/C under setting [19] is 92 % of control and the T/C under setting [20] was 98 % of control.
With `O=C(Nc1ccc(C(=O)O)c(O)c1)Nc1ccccc1C(F)(F)F`, the T/C reads like this: under setting [5], 103 % of control; under setting [7], 90 % of control; under setting [6], 103 % of control.
In the case of `CSC1(C)C(=O)Nc2cc([N+](=O)[O-])ccc21` (stereo not given), the T/C by setting is: under setting [16], 100 % of control; under setting [17], 99 % of control; (dose: 100.0 mg/kg/injection, schedule: Q01DX009 (ip), vehicle: saline with Tween-80) 113 % of control.
On to `O=C1c2cc3ccccc3cc2NC(O)c2cccn21` (stereo not given), for which the T/C runs as follows: (dose: 0.1 mg/kg/injection, schedule: Q01DX005 (ip), vehicle: water) 96 % of control; (dose: 0.2 mg/kg/injection, schedule: Q01DX005 (ip), vehicle: water) 91 % of control; (dose: 0.4 mg/kg/injection, schedule: Q01DX005 (ip), vehicle: water) 100 % of control; (dose: 0.8 mg/kg/injection, schedule: Q01DX005 (ip), vehicle: water) 107 % of control; (dose: 1.6 mg/kg/injection, schedule: Q01DX005 (ip), vehicle: water) 116 % of control; (dose: 5.0 mg/kg/injection, schedule: Q01DX005 (ip), vehicle: distilled water + Tween-80) 100 % of control. The T/C reads like this: (dose: 10.0 mg/kg/injection, schedule: Q01DX005 (ip), vehicle: distilled water + Tween-80) 107 % of control; (dose: 20.0 mg/kg/injection, schedule: Q01DX005 (ip), vehicle: distilled water + Tween-80) 100 % of control; (dose: 40.0 mg/kg/injection, schedule: Q01DX005 (ip), vehicle: distilled water + Tween-80) 99 % of control; (dose: 80.0 mg/kg/injection, schedule: Q01DX005 (ip), vehicle: distilled water + Tween-80) 101 % of control.
`CN(C)c1ccc(C(c2cc3c(cc2O)OCO3)N2CCOCC2)cc1` (stereo not given): the T/C is 113 % of control under setting [5], 120 % of control under setting [7] and 108 % of control under setting [6].
Take `C#CC(OS(=O)(=O)C(F)(F)F)=C1C2CC3CC(C2)CC1C3`: the T/C runs as follows: under setting [18], 100 % of control; under setting [19], 98 % of control; under setting [20], 100 % of control.

Source of the values: PubChem BioAssay AID330 (DTP/NCI, 2004).
